From patent publication US7074796B2 (H. Lundbeck A/S, priority 1999, dated 2006)
Where a name gives a salt, the structure may show the parent alone. Values belong to the compound of their own block, whether it stands above or below them.

Tests used:
[1] = biological target: T1, human cloned dopamine D4.2 receptors (Homo sapiens, UniProt P21917, DEL265-296); test: Inhibition of the binding of [3H]YM-09151-2 to human dopamine D4 receptors; settings: [3H]YM-09151-2 0.06 nM, membranes of CHO-cells; read-out: D4-bind. IC50
T1 construct: expressed in transfected cells; host or cells: CHO cells
T1 sequence (P21917 with tags, fused parts or gaps DEL265-296): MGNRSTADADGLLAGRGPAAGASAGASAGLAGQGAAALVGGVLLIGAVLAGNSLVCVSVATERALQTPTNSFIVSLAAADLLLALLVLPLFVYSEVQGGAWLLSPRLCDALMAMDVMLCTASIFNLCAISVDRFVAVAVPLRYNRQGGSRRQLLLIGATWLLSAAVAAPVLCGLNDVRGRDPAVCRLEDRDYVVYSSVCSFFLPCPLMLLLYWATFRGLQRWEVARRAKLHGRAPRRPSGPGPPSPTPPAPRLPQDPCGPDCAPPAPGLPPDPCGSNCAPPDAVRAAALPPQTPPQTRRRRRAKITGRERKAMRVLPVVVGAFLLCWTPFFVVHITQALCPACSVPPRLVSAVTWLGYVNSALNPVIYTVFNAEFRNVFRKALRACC
Experimental: Inhibition of the Binding of [^3H]YM-09151-2 to Human Dopamine D4 Receptors
By this method the inhibition by drugs of the binding of [^3H]YM-09151–2 (0.06 nM) to membranes of human cloned dopamine D4.2 receptors expressed in CHO-cells is determined in vitro. Method modified from NEN Life Science Products, Inc., technical data certificate PC2533-10/96.

[2] = biological target: T2, human cloned dopamine D3 receptors (Homo sapiens, UniProt P35462); test: Inhibition of the binding of [3H]Spiperone to human D3 receptors; settings: [3H]Spiperone 0.3 nM, membranes of CHO-cells; for inhibition at 0.1 µM: read-out: D3-bind. % inhibition of binding at 100 nM; for IC50: read-out: D3-bind. IC50
T2 construct: expressed in transfected cells; host or cells: CHO cells
Experimental: Inhibition of the Binding of [^3H]Spiperone to Human D3 Receptors
By this method the inhibition by drugs of the binding [^3H]Spiperone (0.3 nM) to membranes of human cloned dopamine D3 receptors expressed in CHO-cells is determined in vitro. Method modified from MacKenzie et al. Eur. J. Pharm.-Mol. Pharm. Sec. 1994, 266, 79–85.

alpha-1 receptors = test: Inhibition of binding of [3H]Prazosine to rat alpha-1 receptors; settings: [3H]Prazosine 0.25 nM, membranes from rat brain
Experimental: Inhibition of Binding of [^3H]Prazosine to Rat Alpha-1 Receptors
By this method the inhibition by drugs of the binding of [^3H]Prazosine (0.25 nM) to alpha-1 receptors in membranes from rat brain is determined in vitro. Method modified from Hyttel et al. J. Neurochem. 1985, 44, 1615–1622.

T2 sequence (P35462 whole entry): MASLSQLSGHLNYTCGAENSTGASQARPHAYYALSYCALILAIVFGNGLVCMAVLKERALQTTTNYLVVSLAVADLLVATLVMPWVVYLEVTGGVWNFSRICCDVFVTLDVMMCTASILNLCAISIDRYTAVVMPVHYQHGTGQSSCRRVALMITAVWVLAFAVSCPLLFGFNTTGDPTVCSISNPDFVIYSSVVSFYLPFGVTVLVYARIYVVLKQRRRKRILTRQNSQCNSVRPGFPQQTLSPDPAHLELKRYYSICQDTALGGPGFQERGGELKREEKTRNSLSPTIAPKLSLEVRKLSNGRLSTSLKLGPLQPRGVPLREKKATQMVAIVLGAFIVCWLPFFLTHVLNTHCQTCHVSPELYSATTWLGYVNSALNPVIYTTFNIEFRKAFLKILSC

Compound: O=C(CCCCN1CCN(c2cccc(Cl)c2Cl)CC1)N1CCc2ccccc21 [Compound 1c, 5-[4-(2,3-Dichlorophenyl)piperazin-1-yl]-1-(2,3-dihydro-1H-indol-1-yl)pentan-1-one]
IC50 [1]: 39 nM
IC50 [2]: 10 nM
IC50 (alpha-1 receptors): 160 nM

Compound: O=C(CCN1CCN(c2cccc(Cl)c2Cl)CC1)N1CCc2ccccc21 [Compound 1a, 3-[4-(2,3-Dichlorophenyl)piperazin-1-yl]-1-(2,3-dihydro-1H-indol-1-yl)propan-1-one]
IC50 [1]: 3.3 nM
IC50 [2]: 100 nM
IC50 (alpha-1 receptors): 59 nM

Compound: Clc1cccc(N2CCN(CCCCc3c[nH]c4ccccc34)CC2)c1Cl [Compound 5b, 3-{4-[4-(2,3-Dichlorophenyl)piperazin-1-yl]butyl}-1H-indole]
IC50 [1]: 14 nM
IC50 [2]: 1.1 nM
IC50 (alpha-1 receptors): 570 nM

Compound: O=C(CCCN1CCN(c2cccc(Cl)c2)CC1)N1CCc2ccccc21 [Compound 1e, 4-[4-(3-Chlorophenyl)piperazin-1-yl]-1-(2,3-dihydro-1H-indol-1-yl)butan-1-one]
IC50 [1]: 2.1 nM
IC50 [2]: 50 nM
IC50 (alpha-1 receptors): 17 nM

Compound: 5-[4-(2,3-Dichloro-phenyl)-piperazin-1-yl]-1-(3,4-dihydro-1H-isoquinolin-2-yl)propan-1-one [Compound 7f]
IC50 [1]: 26 nM
D3-bind. % inhibition of binding at 100 nM ([2]; 100 nM): 95%
Alpha-1 % inhibition of binding at 100 nM (alpha-1 receptors): 34%

Compound: Clc1ccc2c(SCCN3CCN(c4cccc(Cl)c4Cl)CC3)c[nH]c2c1 [Compound 4, 6-Chloro-3-{2-[4-(2,3-dichlorophenyl)piperazin-1-yl]ethylsulfanyl}-1H-indole]
IC50 [1]: 500 nM
IC50 [2]: 40 nM
IC50 (alpha-1 receptors): 4800 nM

Compound: Clc1cccc(N2CCN(CCCCN3CCc4ccccc43)CC2)c1 [Compound 2e, 1-{4-[4-(3-Chlorophenyl)piperazin-1-yl]butyl}-2,3-dihydro-1H-indole]
IC50 [1]: 1.6 nM
IC50 [2]: 17 nM
IC50 (alpha-1 receptors): 40 nM

Compound: Clc1ccccc1N1CCN(CCCCN2CCc3ccccc32)CC1 [Compound 2d, 1-{4-[4-(2-Chlorophenyl)piperazin-1-yl]butyl}-2,3-dihydro-1H-indole]
IC50 [1]: 1.2 nM
IC50 [2]: 4 nM
IC50 (alpha-1 receptors): 31 nM

Compound: O=C(CCCN1CCN(c2cccc(Cl)c2Cl)CC1)N1CCc2ccccc21 [Compound 1b, 4-[4-(2,3-Dichlorophenyl)piperazin-1-yl]-1-(2,3-dihydro-1H-indol-1-yl)butan-1-one]
IC50 [1]: 2.8 nM
IC50 [2]: 3 nM
IC50 (alpha-1 receptors): 1100 nM

Compound: Clc1cccc(N2CCN(CCCN3CCc4ccccc43)CC2)c1Cl [Compound 2a, 1-{3-[4-(2,3-Dichlorophenyl)piperazin-1-yl]propyl}-2,3-dihydro-1H-indole]
IC50 [1]: 1.8 nM
IC50 [2]: 31 nM
IC50 (alpha-1 receptors): 68 nM

Compound: Clc1cccc(N2CCN(CCCCN3CCc4ccccc43)CC2)c1Cl [Compound 2b, 1-{4-[4-(2,3-Dichlorophenyl)piperazin-1-yl]butyl}-2,3-dihydro-1H-indole]
IC50 [1]: 12 nM
IC50 [2]: 3.1 nM
Alpha-1 % inhibition of binding at 100 nM (alpha-1 receptors): 10%

Compound: O=C(CCCN1CCN(c2ccccc2Cl)CC1)N1CCc2ccccc21 [Compound 1d, 4-[4-(2-Chlorophenyl)piperazin-1-yl]-1-(2,3-dihydro-1H-indol-1-yl)butan-1-one]
IC50 [1]: 0.92 nM
IC50 [2]: 20 nM
IC50 (alpha-1 receptors): 97 nM

Compound: Clc1ccc2c(SCCN3CCN(c4cccc(Cl)c4Cl)CC3)c[nH]c2c1 (as salt: oxalate) [Compound 4, 6-Chloro-3-{2-[4-(2,3-dichlorophenyl)piperazin-1-yl]ethylsulfanyl}-1H-indole]
melting point: 137 to 141 °C

Compound: Clc1cccc(N2CCN(CCCc3c[nH]c4ccccc34)CC2)c1Cl [Compound 5a, 3-{3-[4-(2,3-Dichlorophenyl)piperazin-1-yl]propyl}-1H-indole]
IC50 [1]: 2.2 nM
IC50 [2]: 2.8 nM
IC50 (alpha-1 receptors): 410 nM

Compound: Clc1cccc(N2CCN(CCCCC3CCc4ccccc43)CC2)c1Cl (centres unmarked) [Compound 3, 1-(2,3-Dichlorophenyl)-4-[4-(indan-1-yl)butyl]piperazine]
IC50 [1]: 11 nM
IC50 [2]: 6.8 nM
Alpha-1 % inhibition of binding at 100 nM (alpha-1 receptors): −3%

Compound: Clc1cccc(N2CCN(CCCCCN3CCc4ccccc43)CC2)c1Cl [Compound 2c, 1-{5-[4-(2,3-Dichlorophenyl)piperazin-1-yl]pentyl}-2,3-dihydro-1H-indole]
IC50 [1]: 18 nM
IC50 [2]: 22 nM
IC50 (alpha-1 receptors): 190 nM

Next, values leading:

IC50 [1]: 61 nM
inhibition at 0.1 µM ([2]; 100 nM): 92%
Alpha-1 % inhibition of binding at 100 nM (alpha-1 receptors): 45%
Compound: O=C(CCCCN1CCN(c2cccc(Cl)c2Cl)CC1)N1CCc2cc(F)ccc21 [Compound 7c, 5-[4-(2,3-Dichlorophenyl)piperazin-1-yl]-1-(5-fluoro-2,3-dihydro-1H-indol-1-yl)pentan-1-one]

melting point: 234 to 235 °C
Compound: O=C1CCc2ccccc2N1CCCCN1CCN(c2cccc(Cl)c2Cl)CC1 (as salt: hydrochloride) [Compound 6, 1-{4-[4-(2,3-Dichlorophenyl)piperazin-1-yl]butyl}-3,4-dihydroquinolin-2(1H)-one]

IC50 [1]: 25 nM
inhibition at 0.1 µM ([2]; 100 nM): 73%
Alpha-1 % inhibition of binding at 100 nM (alpha-1 receptors): 38%
Compound: O=C(CCN1CCN(c2cccc(Cl)c2Cl)CC1)N1CCc2cc(F)ccc21 [Compound 7a, 3-[4-(2,3-Dichlorophenyl)piperazin-1-yl]-1-(5-fluoro-2,3-dihydro-1H-indol-1-yl)propan-1-one]

IC50 [1]: 53 nM
inhibition at 0.1 µM ([2]; 100 nM): 65%
Alpha-1 % inhibition of binding at 100 nM (alpha-1 receptors): 6%
Compound: O=C(CCCN1CCN(c2cccc(Cl)c2Cl)CC1)N1CCc2cc(F)ccc21 [Compound 7b, 4-[4-(2,3-Dichlorophenyl)piperazin-1-yl]-1-(5-fluoro-2,3-dihydro-1H-indol-1-yl)butan-1-one]

IC50 [1]: 4 nM
inhibition at 0.1 µM ([2]; 100 nM): 88%
Alpha-1 % inhibition of binding at 100 nM (alpha-1 receptors): 74%
Compound: O=C(CCCN1CCN(c2ccccc2Cl)CC1)N1CCc2ccccc2C1 [Compound 8l, 4-[4-(2-Chlorophenyl)piperazin-1-yl]-1-(3,4-dihydro-1H-isoquinolin-2-yl)-butan-1-one]

IC50 [1]: 8 nM
inhibition at 0.1 µM ([2]; 100 nM): 73%
Alpha-1 % inhibition of binding at 100 nM (alpha-1 receptors): 92%
Compound: O=C(CCN1CCN(c2ccccc2Cl)CC1)N1CCc2ccccc2C1 [Compound 8k, 3-[4-(2-Chlorophenyl)piperazin-1-yl]-1-(3,4-dihydro-1H-isoquinolin-2-yl)-propan-1-one]

IC50 [1]: 10 nM
inhibition at 0.1 µM ([2]; 100 nM): 94%
Alpha-1 % inhibition of binding at 100 nM (alpha-1 receptors): 31%
Compound: O=C(CCCN1CCN(c2cccc(Cl)c2Cl)CC1)N1CCc2ccccc2C1 [Compound 7e]

IC50 [1]: 9 nM
inhibition at 0.1 µM ([2]; 100 nM): 92%
Alpha-1 % inhibition of binding at 100 nM (alpha-1 receptors): 69%
Compound: O=C(CCCN1CCN(c2ccccc2F)CC1)N1CCc2ccccc2C1 [Compound 9k, 1-(3,4-Dihydro-1H-isoquinolin-2-yl)-4-[4-(2-fluoro-phenyl)-piperazin-1-yl]-butan-1-one]

IC50 [1]: 6 nM
inhibition at 0.1 µM ([2]; 100 nM): 85%
Alpha-1 % inhibition of binding at 100 nM (alpha-1 receptors): 44%
Compound: O=C(CCN1CCN(c2cccc(Cl)c2Cl)CC1)N1CCc2ccccc2C1 [Compound 7d, 3-[4-(2,3-Dichlorophenyl)piperazin-1-yl]-1-(3,4-dihydro-1H-isoquinolin-2-yl)-propan-1-one]

IC50 [1]: 27 nM
inhibition at 0.1 µM ([2]; 100 nM): 93%
IC50 (alpha-1 receptors): 470 nM
Compound: Clc1ccc2c(CCCN3CCN(c4cccc(Cl)c4Cl)CC3)c[nH]c2c1 [Compound 5e, 6-Chloro-3-{3-[4-(2,3-dichlorophenyl)piperazin-1-yl]propyl}-1H-indole]

IC50 [1]: 3.9 nM
IC50 [2]: 6.8 nM
IC50 (alpha-1 receptors): 960 nM
Compound: Fc1ccc2[nH]cc(CCCN3CCN(c4cccc(Cl)c4Cl)CC3)c2c1 [Compound 5c, 3-{3-[4-(2,3-Dichlorophenyl)piperazin-1-yl]propyl}-5-fluoro-1H-indole]

IC50 [1]: 8.6 nM
IC50 [2]: 1 nM
IC50 (alpha-1 receptors): 720 nM
Compound: Fc1ccc2[nH]cc(CCCCN3CCN(c4cccc(Cl)c4Cl)CC3)c2c1 [Compound 5d, 3-{4-[4-(2,3-Dichlorophenyl)piperazin-1-yl]butyl}-5-fluoro-1H-indole]

IC50 [1]: 16 nM
IC50 [2]: 1.8 nM
IC50 (alpha-1 receptors): 43 nM
Compound: O=C1CCc2ccccc2N1CCCCN1CCN(c2cccc(Cl)c2Cl)CC1 [Compound 6, 1-{4-[4-(2,3-Dichlorophenyl)piperazin-1-yl]butyl}-3,4-dihydroquinolin-2(1H)-one]
